Source: article PMC5007552, “The hVps34‐SGK3 pathway alleviates sustained PI3K/Akt inhibition by stimulating mTORC1 and tumour growth” (The EMBO Journal, 2016)
“And” between values parts separate entries of the source, which are not always exact repeats. Identical values can stand only once.

System: ZR-75-1 cells
Experiment: NanoString human kinome mRNA quantification
Type: cell-based
From the text: Human mRNAs were hybridised to NanoString human kinome and control code sets, then subjected to quantification using NanoString software. […] To permit data compaction, and simple kinome‐wide comparisons, the fold changes are log2 transformed. […] Cell pellets were resuspended at a concentration of ~6,500 cells/μl in RLT buffer (Qiagen). […] For total copy numbers, triplicate normalised count values were averaged, and to calculate fold induction, means were divided by triplicate mean values from matched DMSO controls. P‐values were calculated using unpaired t‐test (GraphPad Prism software) by employing treated and control count data for each kinase mRNA.

## NC1(c2ccc(-c3nc4ccn5c(=O)[nH]nc5c4cc3-c3ccccc3)cc2)CCC1 [MK-2206]
HIPK1 mRNA, single replicates
  Normalised counts HIPK1: 558.67 and 555.89 and 631.82
HIPK2 mRNA, average of 3 replicates
  Average normalised counts HIPK2: 697.1
HIPK2 mRNA, single replicates
  Normalised counts HIPK2: 690.47 and 698.36 and 702.47
HIPK3 mRNA, average of 3 replicates
  Average normalised counts HIPK3: 924.78
HIPK3 mRNA, single replicates
  Normalised counts HIPK3: 914.99 and 915.54 and 943.81
HIPK4 mRNA, average of 3 replicates
  Average normalised counts HIPK4: 8.793
HIPK4 mRNA, single replicates
  Normalised counts HIPK4: 13.29 and 6.84 and 6.25
HSPB8 mRNA, average of 3 replicates
  Average normalised counts HSPB8: 703.253
HSPB8 mRNA, single replicates
  Normalised counts HSPB8: 670.48 and 739.19 and 700.09
HUNK mRNA, average of 3 replicates
  Average normalised counts HUNK: 120.407
HUNK mRNA, single replicates
  Normalised counts HUNK: 115.1 and 122.38 and 123.74
HUS1 mRNA, average of 3 replicates
  Average normalised counts HUS1: 872.423
HUS1 mRNA, single replicates
  Normalised counts HUS1: 841.36 and 886.88 and 889.03
IGF1R mRNA, average of 3 replicates
  Average normalised counts IGF1R: 2361.57
IGF1R mRNA, single replicates
  Normalised counts IGF1R: 2300.25 and 2376.77 and 2407.7
IKBKB mRNA, average of 3 replicates
  Average normalised counts IKBKB: 768.703
IKBKB mRNA, single replicates
  Normalised counts IKBKB: 749.55 and 764.38 and 792.18
IKBKE mRNA, average of 3 replicates
  Average normalised counts IKBKE: 224.477
IKBKE mRNA, single replicates
  Normalised counts IKBKE: 217.95 and 203.13
ILK mRNA, average of 3 replicates
  Average normalised counts ILK: 435.073
ILK mRNA, single replicates
  Normalised counts ILK: 419.6 and 422.1 and 463.52
INSR mRNA, average of 3 replicates
  Average normalised counts INSR: 414.107
INSR mRNA, single replicates
  Normalised counts INSR: 395.06 and 455.98 and 391.28
INSRR mRNA, average of 3 replicates
  Average normalised counts INSRR: 3.12
INSRR mRNA, single replicates
  Normalised counts INSRR: 2.39 and 5.97 and 1
IRAK1 mRNA, average of 3 replicates
  Average normalised counts IRAK1: 1144.48
IRAK1 mRNA, single replicates
  Normalised counts IRAK1: 1168.59 and 1134.47 and 1130.37
IRAK2 mRNA, average of 3 replicates
  Average normalised counts IRAK2: 17.2833
IRAK2 mRNA, single replicates
  Normalised counts IRAK2: 12.38 and 18.13 and 21.34
IRAK3 mRNA, average of 3 replicates
  Average normalised counts IRAK3: 4.617
IRAK3 mRNA, single replicates
  Normalised counts IRAK3: 3.29 and 5.1 and 5.46
IRAK4 mRNA, average of 3 replicates
  Average normalised counts IRAK4: 506.37
IRAK4 mRNA, single replicates
  Normalised counts IRAK4: 495.95 and 488.99 and 534.17
ITK mRNA, average of 3 replicates
  Average normalised counts ITK: 1.763
ITK mRNA, single replicates
  Normalised counts ITK: 3.29 and 1 (2×)
JAK1 mRNA, average of 3 replicates
  Average normalised counts JAK1: 943.323
JAK1 mRNA, single replicates
  Normalised counts JAK1: 967.71 and 921.63 and 940.63
JAK2 mRNA, average of 3 replicates
  Average normalised counts JAK2: 378.063
JAK2 mRNA, single replicates
  Normalised counts JAK2: 379.61 and 384.74 and 369.84
JAK3 mRNA, average of 3 replicates
  Average normalised counts JAK3: 2.113
JAK3 mRNA, single replicates
  Normalised counts JAK3: 1.48 and 3.37 and 1.49
KALRN mRNA, average of 3 replicates
  Average normalised counts KALRN: 1
KALRN mRNA, single replicates
  Normalised counts KALRN: 1
KDR mRNA, average of 3 replicates
  Average normalised counts KDR: 1.163
KDR mRNA, single replicates
  Normalised counts KDR: 1 (2×) and 1.49
KIAA1804 mRNA, average of 3 replicates
  Average normalised counts KIAA1804: 209.647
KIAA1804 mRNA, single replicates
  Normalised counts KIAA1804: 226.9 and 199.7 and 202.34
KIT mRNA, average of 3 replicates
  Average normalised counts KIT: 1
KIT mRNA, single replicates
  Normalised counts KIT: 1
KSR1 mRNA, average of 3 replicates
  Average normalised counts KSR1: 15.5767
KSR1 mRNA, single replicates
  Normalised counts KSR1: 14.2 and 11.19 and 21.34
KSR2 mRNA, average of 3 replicates
  Average normalised counts KSR2: 58.27
KSR2 mRNA, single replicates
  Normalised counts KSR2: 61.47 and 55.49 and 57.85
LATS1 mRNA, average of 3 replicates
  Average normalised counts LATS1: 1079.17
LATS1 mRNA, single replicates
  Normalised counts LATS1: 1068.6 and 1080.61 and 1088.29
LATS2 mRNA, average of 3 replicates
  Average normalised counts LATS2: 223.537
LATS2 mRNA, single replicates
  Normalised counts LATS2: 222.36 and 229.24 and 219.01
LCK mRNA, average of 3 replicates
  Average normalised counts LCK: 1
LCK mRNA, single replicates
  Normalised counts LCK: 1
LIMK1 mRNA, average of 3 replicates
  Average normalised counts LIMK1: 487.24
LIMK1 mRNA, single replicates
  Normalised counts LIMK1: 499.59 and 471.62 and 490.51
LMTK2 mRNA, average of 3 replicates
  Average normalised counts LMTK2: 633.213
LMTK2 mRNA, single replicates
  Normalised counts LMTK2: 615.03 and 621.04 and 663.57
LMTK3 mRNA, average of 3 replicates
  Average normalised counts LMTK3: 14.4067
LMTK3 mRNA, single replicates
  Normalised counts LMTK3: 19.66 and 8.58 and 14.98
LRRK1 mRNA, average of 3 replicates
  Average normalised counts LRRK1: 204.153
LRRK1 mRNA, single replicates
  Normalised counts LRRK1: 193.27 and 214.47 and 204.72
LRRK2 mRNA, average of 3 replicates
  Average normalised counts LRRK2: 465.12
LRRK2 mRNA, single replicates
  Normalised counts LRRK2: 461.41 and 439.47 and 494.48
LTK mRNA, average of 3 replicates
  Average normalised counts LTK: 1
LTK mRNA, single replicates
  Normalised counts LTK: 1
LYN mRNA, average of 3 replicates
  Average normalised counts LYN: 10.41
LYN mRNA, single replicates
  Normalised counts LYN: 11.48 and 10.32 and 9.43
MAK mRNA, average of 3
  MAK Normalised counts Average: 7.77
MAK mRNA, replicates 1-3
  MAK Normalised counts (single replicates): 7.84 and 6.84 and 8.63
MAP2K1 mRNA, average of 3
  MAP2K1 Normalised counts Average: 1481.58
MAP2K1 mRNA, replicates 1-3
  MAP2K1 Normalised counts (single replicates): 1469.45 and 1465.46 and 1509.84
MAP2K2 mRNA, average of 3
  MAP2K2 Normalised counts Average: 2403.01
MAP2K2 mRNA, replicates 1-3
  MAP2K2 Normalised counts (single replicates): 2394.14 and 2328.31
MAP2K3 mRNA, average of 3
  MAP2K3 Normalised counts Average: 410.613
MAP2K3 mRNA, replicates 1-3
  MAP2K3 Normalised counts (single replicates): 415.06 and 378.66 and 438.12
MAP2K4 mRNA, average of 3
  MAP2K4 Normalised counts Average: 708.25
MAP2K4 mRNA, replicates 1-3
  MAP2K4 Normalised counts (single replicates): 670.48 and 728.77 and 725.5
MAP2K5 mRNA, average of 3
  MAP2K5 Normalised counts Average: 322.173
MAP2K5 mRNA, replicates 1-3
  MAP2K5 Normalised counts (single replicates): 317.8 and 316.98 and 331.74
MAP2K6 mRNA, average of 3
  MAP2K6 Normalised counts Average: 279.153
